Measurements taken from ChEMBL document CHEMBL1127151, “Derivatives of cyclosporin at position 2 as probes for cyclophilin” (1993).

Assays:
[1] = In vitro binding affinity of compound was measured to Cyclophilin under competitive ELISA system, activity relative to compound 1
Mus musculus = species on record: Mus musculus; experiment: The immunosuppressive activity of compound was measured with the help of a mixed lymphocyte reaction in mouse (MLR_M), activity relative to compound 1; type: functional
T-cell = experiment: The immunosuppressive activity of compound was measured with the help of a reporter gene assay (IL2_RGA), activity relative to compound 1; type: functional, Homo sapiens

| Ratio [1] | SMILES | Ratio (Mus musculus) | Ratio (T-cell) |
| --- | --- | --- | --- |
| 250 | C/C=C/C[C@@H](C)[C@@H](O)[C@H]1C(=O)N[C@@H](CC(Cl)Cl)C(=O)N(C)CC(=O)N(C)[C@@H](CC(C)C)C(=O)N[C@@H](C(C)C)C(=O)N(C)[C@@H](CC(C)C)C(=O)N[C@@H](C)C(=O)N[C@H](C)C(=O)N(C)[C@@H](CC(C)C)C(=O)N(C)[C@@H](CC(C)C)C(=O)N(C)C(C(C)C)C(=O)N1C (single isomer, unassigned) | 135 | 200 |
| 5.2 | C/C=C/C[C@@H](C)[C@@H](O)[C@H]1C(=O)N[C@@H]([C@H](O)CC)C(=O)N(C)CC(=O)N(C)[C@@H](CC(C)C)C(=O)N[C@@H](C(C)C)C(=O)N(C)[C@@H](CC(C)C)C(=O)N[C@@H](C)C(=O)N[C@H](C)C(=O)N(C)[C@@H](CC(C)C)C(=O)N(C)[C@@H](CC(C)C)C(=O)N(C)C(C(C)C)C(=O)N1C (single isomer, unassigned) | 2.3 | 3 |
| 250 | C/C=C/C[C@@H](C)[C@@H](O)[C@H]1C(=O)N[C@@H](CC2CC2)C(=O)N(C)CC(=O)N(C)[C@@H](CC(C)C)C(=O)N[C@@H](C(C)C)C(=O)N(C)[C@@H](CC(C)C)C(=O)N[C@@H](C)C(=O)N[C@H](C)C(=O)N(C)[C@@H](CC(C)C)C(=O)N(C)[C@@H](CC(C)C)C(=O)N(C)C(C(C)C)C(=O)N1C (single isomer, unassigned) | 120 | 225 |
| 1.4 | C/C=C/C[C@@H](C)[C@@H](O)[C@H]1C(=O)N[C@@H]([C@@H](C)O)C(=O)N(C)CC(=O)N(C)[C@@H](CC(C)C)C(=O)N[C@@H](C(C)C)C(=O)N(C)[C@@H](CC(C)C)C(=O)N[C@@H](C)C(=O)N[C@H](C)C(=O)N(C)[C@@H](CC(C)C)C(=O)N(C)[C@@H](CC(C)C)C(=O)N(C)C(C(C)C)C(=O)N1C (single isomer, unassigned) | 1.7 | 1 |
| 207 | C/C=C/C[C@@H](C)[C@@H](O)[C@H]1C(=O)N[C@@H](C[C@@H](C)O)C(=O)N(C)CC(=O)N(C)[C@@H](CC(C)C)C(=O)N[C@@H](C(C)C)C(=O)N(C)[C@@H](CC(C)C)C(=O)N[C@@H](C)C(=O)N[C@H](C)C(=O)N(C)[C@@H](CC(C)C)C(=O)N(C)[C@@H](CC(C)C)C(=O)N(C)C(C(C)C)C(=O)N1C (single isomer, unassigned) |  |  |
| 4 | C/C=C/C[C@@H](C)[C@@H](O)[C@H]1C(=O)N[C@@H](CCC)C(=O)N(C)CC(=O)N(C)[C@@H](CC(C)C)C(=O)N[C@@H](C(C)C)C(=O)N(C)[C@@H](CC(C)C)C(=O)N[C@@H](C)C(=O)N[C@H](C)C(=O)N(C)[C@@H](CC(C)C)C(=O)N(C)[C@@H](CC(C)C)C(=O)N(C)C(C(C)C)C(=O)N1C (single isomer, unassigned) [GECLOSPORIN] | 1.6 | 2.6 |
